{"source": "patent US20070116822A1", "about": "“HIGH-POTENCY SWEETENER COMPOSITION WITH SAPONIN AND COMPOSITIONS SWEETENED THEREWITH” (THE COCA-COLA COMPANY, priority 2005, published 2007)", "key": {"[1]": {"test": "Sensory evaluation of sweetness linger by a panel of experts", "assay_type": "in vivo", "design": "key: 0=no sweetness linger; 1=very slight sweetness linger; 2=slight sweetness linger; 3=moderate sweetness linger; 4=moderately high sweetness linger; 5=high sweetness linger", "conditions": "for Sweetness linger rating: scale 0-5; for Sweetness Linger rating (defined scale anchors): rating defined for the protocol, REBA control sample 500 ppm", "experimental": "As used herein, the phrases “sugar-like characteristic,” “sugar-like taste,” “sugar-like sweet,” “sugary,” and “sugar-like” are synonymous. […] These characteristics are dimensions in which the taste of sucrose is different from the tastes of natural and synthetic high-potency sweeteners. Whether or not a characteristic is more sugar-like is determined by expert sensory panel assessments of sugar and compositions comprising at least one natural and/or synthetic high-potency sweetener, both with and without a sweet taste improving composition. Such assessments quantify similarities of the characteristics of compositions comprising at least one natural and/or synthetic high-potency sweetener, both with and without a sweet taste improving composition, with those comprising sugar. Suitable procedures for determining whether a composition has a more sugar-like taste are well known in the art.\nIn a particular embodiment, a panel of assessors is used to measure the reduction of sweetness linger. Briefly described, a panel of assessors (generally 8 to 12 individuals) is trained to evaluate sweetness perception and measure sweetness at several time points from when the sample is initially taken into the mouth until 3 minutes after it has been expectorated. […] A decrease in score for a time point measured after the sample has cleared the mouth indicates there has been a reduction in sweetness perception.\nThe panel of assessors may be trained using procedures well known to those of ordinary skill in the art. In a particular embodiment, the panel of assessors may be trained using the Spectrum™ Descriptive Analysis Method (Meilgaard et al, Sensory Evaluation Techniques, 3rd edition, Chapter 11). Desirably, the focus of training should be the recognition of and the measure of the basic tastes; specifically, sweet. In order to ensure accuracy and reproducibility of results, each assessor should repeat the measure of the reduction of sweetness linger about three to about five times per sample, taking at least a five minute break between each repetition and/or sample and rinsing well with water to clear the mouth.\nGenerally, the method of measuring sweetness comprises taking a 10 mL sample into the mouth, holding the sample in the mouth for 5 seconds and gently swirling the sample in the mouth, rating the sweetness intensity perceived at 5 seconds, expectorating the sample (without swallowing following expectorating the sample), rinsing with one mouthful of water (e.g., vigorously moving water in mouth as if with mouth wash) and expectorating the rinse water, rating the sweetness intensity perceived immediately upon expectorating the rinse water, waiting 45 seconds and, while wating those 45 seconds, identifying the time of maximum perceived sweetness intensity and rating the sweetness intensity at that time (moving the mouth normally and swallowing as needed), rating the sweetness intensity after another […], rating the sweetness intensity after another 60 seconds (cumulative 120 seconds after rinse), and rating the sweetness intensity after still another 60 seconds (cumulative 180 seconds after rinse). Between samples take a 5 minute break, rinsing well with water to clear the mouth.\nSensory evaluation of the samples prepared in Example Set G was carried out under the following protocol, similar to that described hereinabove. In this test protocol, none of the samples were swallowed. All samples were expectorated and the mouth was rinsed with water after the tasting. Immediately upon sensing maximal sweetness, the sample was expectorated, the mouth was rinsed with water and the rate of sweetness decay (“Sweetness Linger”) was measured, where attention was focused on the sweetness 3-4 min after the water rinse. After sample tasting was complete, a salty oyster cracker was chewed followed by a water rinse, and at least 5 minutes followed before tasting the next sample. […]"}, "[2]": {"assay_type": "physicochemical", "experimental": "A solution of rebaudioside A (>97% pure by HPLC ) was prepared in double distilled water (12.5 gm in 50 mL, 25% concentration) by stirring the mixture at 40° C. for 5 minutes. An amorphous form of rebaudioside A was formed by immediately using the clear solution for spray drying with the Lab-Plant spray drier SD-04 instrument (Lab-Plant Ltd., West Yorkshire, U.K.). The solution was fed through the feed pump into the nozzle atomizer which atomized it into a spray of droplets with the help of a constant flow of nitrogen/air. […] This dry powder (11-12 g, H2O 6.74%) was discharged continuously from the drying chamber and was collected in a bottle."}, "[3]": {"conditions": "Example Set G, citric acid/potassium citrate composition equivalent to diet lemon-lime beverage, sweetness 3-4 min after water rinse"}, "[4]": {"conditions": "Example Set H, carbon-treated water, phosphoric acid (75%) to pH 2.4-2.5, protocol of Example Set G"}}, "data": [{"compound": "OC[C@H]1O[C@@](CO)(O[C@H]2O[C@H](CO)[C@@H](O)[C@H](O)[C@H]2O)[C@@H](O)[C@@H]1O", "note": "[sugar, sucrose]", "values": [{"measurement": "Sweetness linger rating", "setting": "[1]; [3]", "result": 0}, {"measurement": "Sweetness linger rating", "setting": "[1]; [4]", "result": 0}, {"measurement": "Sweetness Linger rating (defined scale anchors)", "setting": "[1]", "result": 0}]}, {"compound": "rebaudioside A", "values": [{"measurement": "Sweetness linger rating", "setting": "[1]; [3]", "result": 5}, {"measurement": "Sweetness linger rating", "setting": "[1]; [4]", "result": 5}, {"measurement": "Sweetness Linger rating (defined scale anchors)", "setting": "[1]", "result": 5}]}, {"compound": "rebaudioside A [Form 4]", "values": [{"measurement": "Solubility in water at room temperature", "setting": "[2]", "result": "> 35.0", "unit": "%"}]}]}
